Reference: patent EP0828726B1, “TRICYCLIC INHIBITORS OF MATRIX METALLOPROTEINASES” (WARNER-LAMBERT COMPANY, priority 1995, dated 1996)

Columns and labels:
[1] = molecular target: T1, gelatinase B (recombinant full-length enzyme) (Homo sapiens, UniProt P14780); assay: Thiopeptolide substrate IC50 assay, gelatinase B; type: biochemical
T1 construct: gelatinase B (recombinant full-length enzyme)
Description: (§1) Experiments were carried out with both the full-length enzymes and the catalytic domains. […] IC50 values were determined using a thiopeptolide substrate, Ac-Pro-Leu-Gly-thioester-Leu-Leu-Gly-OEt (Ye Q.-Z., Johnson L.L., Hupe D.J., and Baragi V., "Purification and Characterization of the Human Stromelysin Catalytic Domain Expressed in Escherichia coli", Biochemistry, 1992;31:11231-11235). […] IC50 values for gelatinase B, and collagenase, were >100 µM.

[2] = molecular target: T2, gelatinase A (recombinant full-length enzyme) (Homo sapiens, UniProt P08253); assay: Thiopeptolide substrate IC50 assay, full-length gelatinase A; type: biochemical
T2 construct: gelatinase A (recombinant full-length enzyme)
T2 sequence (P08253 110-660): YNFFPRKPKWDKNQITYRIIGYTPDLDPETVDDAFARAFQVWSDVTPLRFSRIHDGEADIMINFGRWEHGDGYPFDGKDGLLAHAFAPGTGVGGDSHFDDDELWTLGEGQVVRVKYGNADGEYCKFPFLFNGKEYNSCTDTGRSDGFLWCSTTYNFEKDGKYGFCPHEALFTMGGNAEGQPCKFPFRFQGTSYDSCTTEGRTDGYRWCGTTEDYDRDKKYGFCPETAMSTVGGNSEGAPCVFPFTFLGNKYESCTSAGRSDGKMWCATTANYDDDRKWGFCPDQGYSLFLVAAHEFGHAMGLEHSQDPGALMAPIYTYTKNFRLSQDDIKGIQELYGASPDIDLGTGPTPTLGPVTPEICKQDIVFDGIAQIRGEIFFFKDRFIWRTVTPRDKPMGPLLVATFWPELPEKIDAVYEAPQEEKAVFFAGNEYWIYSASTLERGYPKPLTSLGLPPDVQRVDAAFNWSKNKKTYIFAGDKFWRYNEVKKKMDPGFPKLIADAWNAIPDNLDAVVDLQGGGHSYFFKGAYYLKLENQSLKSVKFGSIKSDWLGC
Description: as §1

[3] = test system: EAE; assay: Experimental allergic encephalomyelitis (EAE), Lewis rat acute model; type: in vivo
Description: Female Lewis rats were purchased from Harlan Sprague-Dawley (Indianapolis, IN) and were used at 8 to 10 weeks of age. Active EAE was induced by injection of 0.05 mL emulsion of myelin basic protein (MBP) with complete Freund's adjuvant (CFA), containing 25 µg guinea pig MBP and 100 µg Mycobacterium butyricum (Difco Laboratories, Detroit, MI) into one hind footpad. Immunized rats were observed daily for clinical signs of EAE and scored as follows: 0, no symptoms; 1, loss of tail tonicity; 2, paresis; 3, hind limb paralysis, often accompanied by incontinence; and 4, death. Formalin-fixed brain slice sections were stained with hematoxylin-eosin and evaluated microscopically for perivascular and parenchymal infiltration. Compound was administered by gavage as a solution in sterile saline in a volume of 500 µL. […] Several different protocols were used to define the efficacy and timing requirements for potency.
Protocol 1: Compound was administered daily at 50 mg/kg beginning on Day 0 and continuing through Day 14, with MBP in CFA administered on Day 0 also. […] N = 5 for all groups.
Controls run in parallel included CFA only and MBP in CFA. N = 4 for treatment groups. N = 8 for controls.

[4] = molecular target: T3, SCD (stromelysin-1 catalytic domain) (Homo sapiens, UniProt P08254); assay: Thiopeptolide substrate IC50 assay, stromelysin-1 catalytic domain; type: biochemical
T3 construct: The gene for the catalytic domain of stromelysin-1, SCD, was constructed by removing the propeptide and C-terminal domain; made in house; host or cells: Escherichia coli
From the text: (§2) Matrix metalloproteinases share high sequence homology and the catalytic domains of each of the MMPs can be identified by sequence alignment. The gene for the catalytic domain of stromelysin-1, SCD, was constructed by removing the propeptide and C-terminal domain (Ye Q.-Z., Johnson L.L, Hupe D.J., and Baragi V., "Purification and Characterization of the Human Stromelysin Catalytic Domain Expressed in Escherichia coli", Biochemistry, 1992;31:11231-11235). The gelatinase A catalytic domain, GCD, was similarly constructed with the additional removal of the fibronectin-like insert which interrupts the catalytic domain (Ye Q.-Z., Johnson L.L, Yu A.E., and Hupe D., "Reconstructed 19 kDa Catalytic Domain of Gelatinase A is an Active Proteinase", Biochemistry, 1995;34:4702-4708). Both truncated proteins cleave synthetic peptide substrates and the natural substrates proteoglycan and gelatin in a manner similar to the full-length enzymes and can be used to identify matrix metalloproteinase inhibitors.
(§3) Experiments were carried out with both the full-length enzymes and the catalytic domains. […] IC50 values were determined using a thiopeptolide substrate, Ac-Pro-Leu-Gly-thioester-Leu-Leu-Gly-OEt (Ye Q.-Z., Johnson L.L., Hupe D.J., and Baragi V., "Purification and Characterization of the Human Stromelysin Catalytic Domain Expressed in Escherichia coli", Biochemistry, 1992;31:11231-11235). […]

[5] = molecular target: T4, GCD (recombinant gelatinase A catalytic domain) (Homo sapiens, UniProt P08253, DEL220-393); assay: Thiopeptolide substrate IC50 assay, gelatinase A catalytic domain; type: biochemical
T4 construct: The gelatinase A catalytic domain, GCD, was similarly constructed with the additional removal of the fibronectin-like insert which interrupts the catalytic domain; made in house
From the text: as §2, §3

[6] = test system: Mycobacterium footpad edema; assay: Mycobacterium footpad edema assay (MFE); type: in vivo, Wistar rats; conditions: in Rattus norvegicus, po, paw swelling on third day
Description: The activity of Example 2 as a general inhibitor of inflammation was tested using the Mycobacterium footpad edema assay (MFE) in Wistar rats. Compound was administered daily by gavage at 2 mg/kg, 10 mg/kg, or 50 mg/kg.
Male outbred Wistar rats (110-125 g, Charles River Labs, Portage, MI) were used in this study. Rats were housed for a minimum of 1 week before use. Food and water were supplied ad libitum. Foot pad edema was induced following the method described by Martel R.R. and Klicius J., "Comparisons in rats of the antiinflammatory and gastric irritant effects of etodolac with several clinically effective antiinflammatory drugs", Agents and Actions, 1982;12:295. Briefly, male Wistar rats were injected subcutaneously into the right hind footpad with 0.1 mL of 5 mg/mL suspension of killed and dried Mycobacterium butyricum (Difco, Detroit, MI) in liquid paraffin. Compound was suspended in 0.5% hydroxypropylmethylcellulose (HPMC) containing 0.2% Tween-80 and administered orally 1 hour before injection. Subsequent doses of the compound were given 24 and 48 hours after the Mycobacterium. Control animals were given vehicle alone. Swelling was assessed on the third day by subtracting the initial volume (determined immediately following the Mycobacterium injection) from the final volume of the treated paw. Paw volume was determined by mercury plethysmography. The percent inhibition of edema achieved in each compound-treated group was determined by comparison with swelling in the vehicle-treated group and the ID50 values were determined by regression analysis. Statistical significance between experimental groups was evaluated using a Student's t-test. […]

[7] = molecular target: T5, stromelysin-1 (full-length native enzyme) (Homo sapiens, UniProt P08254); assay: Thiopeptolide substrate IC50 assay, full-length stromelysin-1; type: biochemical
T5 construct: stromelysin-1 (full-length native enzyme)
Description: as §1

[8] = Protocol 1: CFA + MBP, 50 mg/kg daily oral Day 0 through Day 14
[9] = Protocol 2: CFA + MBP, 10 mg/kg alternate days
[10] = Protocol 2: CFA + MBP, 50 mg/kg alternate days

T1 sequence (P14780 94-707): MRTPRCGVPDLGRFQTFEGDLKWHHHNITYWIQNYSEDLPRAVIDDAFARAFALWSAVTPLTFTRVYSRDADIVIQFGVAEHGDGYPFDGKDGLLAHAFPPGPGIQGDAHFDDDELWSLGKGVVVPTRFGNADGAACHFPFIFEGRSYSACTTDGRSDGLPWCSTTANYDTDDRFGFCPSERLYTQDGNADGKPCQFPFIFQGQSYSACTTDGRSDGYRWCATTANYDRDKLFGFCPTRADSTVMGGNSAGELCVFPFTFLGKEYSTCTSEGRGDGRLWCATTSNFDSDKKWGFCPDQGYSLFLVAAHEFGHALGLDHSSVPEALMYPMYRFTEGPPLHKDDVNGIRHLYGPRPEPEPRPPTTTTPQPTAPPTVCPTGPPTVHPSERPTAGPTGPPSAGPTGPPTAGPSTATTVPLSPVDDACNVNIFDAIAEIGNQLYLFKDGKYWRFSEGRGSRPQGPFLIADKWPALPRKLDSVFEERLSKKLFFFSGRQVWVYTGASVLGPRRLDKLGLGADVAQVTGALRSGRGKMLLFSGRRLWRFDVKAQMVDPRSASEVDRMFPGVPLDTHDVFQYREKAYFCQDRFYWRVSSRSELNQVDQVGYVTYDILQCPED
T5 sequence (P08254 100-477): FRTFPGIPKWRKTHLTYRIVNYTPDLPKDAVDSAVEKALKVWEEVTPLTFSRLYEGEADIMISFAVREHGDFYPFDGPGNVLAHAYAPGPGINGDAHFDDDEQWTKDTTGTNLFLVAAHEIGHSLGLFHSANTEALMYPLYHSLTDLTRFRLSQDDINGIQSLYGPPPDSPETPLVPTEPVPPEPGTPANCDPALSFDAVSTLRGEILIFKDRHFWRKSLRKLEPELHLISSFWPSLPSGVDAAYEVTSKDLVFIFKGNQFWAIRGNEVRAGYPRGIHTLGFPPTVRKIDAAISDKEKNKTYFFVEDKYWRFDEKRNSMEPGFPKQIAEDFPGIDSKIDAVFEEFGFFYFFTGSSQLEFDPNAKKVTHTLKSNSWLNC
T3 sequence (P08254 100-272 limits assumed): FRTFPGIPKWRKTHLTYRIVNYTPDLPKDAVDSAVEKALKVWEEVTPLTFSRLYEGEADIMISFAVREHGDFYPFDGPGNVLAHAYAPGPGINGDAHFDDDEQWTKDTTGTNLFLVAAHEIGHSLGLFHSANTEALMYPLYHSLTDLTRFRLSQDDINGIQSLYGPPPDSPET
T4 sequence (P08253 with tags, fused parts or gaps DEL220-393): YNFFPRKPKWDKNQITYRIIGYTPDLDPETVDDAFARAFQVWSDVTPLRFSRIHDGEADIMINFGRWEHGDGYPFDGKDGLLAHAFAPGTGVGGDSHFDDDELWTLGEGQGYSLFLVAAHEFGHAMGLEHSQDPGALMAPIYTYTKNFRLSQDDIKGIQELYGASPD

Q: With `O=C(O)CCC(=NO)c1ccc2oc3ccccc3c2c1` [Example 2, 4-Dibenzofuran-2-yl-4-hydroximino-butyric acid] as the compound, how does the IC50 [1] read?
A: > 100 µM

Q: And the IC50 [2]?
A: 1.31 µM

Q: What about the “treated animals showing reduction of symptoms” value ([3]; Protocol 1, 50 mg/kg daily) of the same compound?
A: 20%

Q: What about the “treated animals showing total inhibition of symptoms” value ([3]; Protocol 1, 50 mg/kg daily) of the same compound?
A: 80%

Q: And the “leukocyte migration across the blood-brain barrier” value ([3]; Protocol 1, 50 mg/kg daily, histology of brain slices)?
A: completely prevented

Q: And the “percentage of animals responding” value ([3]; Protocol 1, 50 mg/kg daily, total inhibition or reduction of symptoms)?
A: 100%

Q: What about the “Day of Peak Expression” value [3, 8] of the same compound?
A: 12

Q: What about the “Effect on EAE Rats (≥Paresis/ Total)” value [3, 8] of the same compound?
A: 1/5

Q: And the “Clinical Grade at Peak of Disease” value ([3]; Protocol 1: CFA + MBP, 50 mg/kg daily oral Day 0 through Day 14, score 0-4, N = 5)?
A: 1.0

Q: What about the “Effect on EAE Rats (≥Paresis/ Total)” value ([3]; Protocol 1: CFA only (no MBP), 50 mg/kg daily oral) of the same compound?
A: 0/5

Q: What about the “Clinical Grade at Peak of Disease” value ([3]; Protocol 1: CFA only (no MBP), 50 mg/kg daily oral, N = 5) of the same compound?
A: 0

Q: What about the “Day of Peak Expression” value [3, 9] of the same compound?
A: 14

Q: What about the “Effect on EAE Rats (≥Paresis/ Total)” value [3, 9] of the same compound?
A: 0/4

Q: What about the “Clinical Grade at Peak of Disease” value ([3]; Protocol 2: CFA + MBP, 10 mg/kg on Day 0 and alternate days through Day 14, N = 4) of the same compound?
A: 0.6

Q: What about the “Day of Peak Expression” value [3, 10] of the same compound?
A: 15

Q: And the “Effect on EAE Rats (≥Paresis/ Total)” value [3, 10]?
A: 0/4

Q: And the “Clinical Grade at Peak of Disease” value ([3]; Protocol 2: CFA + MBP, 50 mg/kg on Day 0 and alternate days through Day 14, N = 4)?
A: 0.8

Q: And the IC50 [4]?
A: 7.12 µM

Q: And the IC50 [5]?
A: 0.04 µM

Q: What about the inhibition at 2 mg/kg ([6]; 2 mg/kg daily by gavage) of the same compound?
A: 23%

Q: What about the inhibition at 10 mg/kg ([6]; 10 mg/kg daily by gavage) of the same compound?
A: 27%

Q: And the inhibition at 50 mg/kg ([6]; 50 mg/kg daily by gavage)?
A: 40%

Q: And the IC50 [7]?
A: 7.64 µM
